According to article PMC3815585 (European journal of medicinal chemistry, 2008):
One block for each compound: values may come before it.

Tests used:
[1] = system: Poly(d(A-T))2; test: DNA thermal melting; type: binding; details: from ΔTm values; for Reduction in DNA affinity: compared within the bis-guanidine series
[2] = system: T.b.r. strain STIB900; test: STIB900 acute mouse model for African trypanosomiasis; type: in vivo
[3] = system: Trypanosoma brucei rhodesiense (T.b.r.) strain STIB900; type: cell-based; details: RHODESIENSE|STIB900, read-out: T.b.r. IC50

Structure (SMILES): N=C(N)Nc1ccc(-c2ccc(-c3ccc(NC(=N)N)cc3)cc2)cc1 [6a, 4,4″-Bis-guanidino-[1,1′;4′,1″]terphenyl]
- Reduction of DNA affinity from that of the corresponding diamidine V [1]: about 20%
- Cures (mice that survived 60 days and are parasite-free) ([2]; 20 mg/kg ip for 4 days): none gave cures

Structure (SMILES): N=C(N)Nc1ccc(-c2ccc(-c3ccc(NC(=N)N)cn3)cc2)nc1 [6b, 1,4-Bis-[5′-guanidinopyridin-2′-yl]phenylene]
- Reduction in DNA affinity [1]: approximately one third

Structure (SMILES): CCOC(=O)/N=C(\N)Nc1ccc(-c2ccc(-c3ccc(N/C(N)=N/C(=O)OCC)cc3)cc2)cc1 [8a, 4,4″-Bis(N′-ethoxycarbonyl)-guanidino-[1,1′;4′,1″]terphenyl]
- Cures (mice that survived 60 days and are parasite-free) ([2]; 25 mg/kg po for 4 days): no cures were achieved

Structure (SMILES): CCOC(=O)/N=C(\NC)Nc1ccc(-c2ccc(-c3ccc(N/C(=N/C(=O)OCC)NC)cc3)cc2)cc1 [8c, 4,4″-Bis(N′-ethoxycarbonyl-N″-methyl)-guanidino-[1,1′;4′,1″]terphenyl]
- Cures (mice that survived 60 days and are parasite-free) ([2]; 25 mg/kg po for 4 days): no cures were achieved

Structure (SMILES): CNC(=N)Nc1ccc(-c2ccc(-c3ccc(NC(=N)NC)cc3)cc2)cc1 [9c, 4,4″-Bis(N′-methyl)-guanidino-[1,1′;4′,1″]terphenyl]
- Cures (mice that survived 60 days and are parasite-free) ([2]; 20 mg/kg ip for 4 days): none gave cures

Structure (SMILES): CNC(=N)Nc1ccc(-c2ccc(-c3ccc(NC(=N)NC)cn3)cc2)nc1 [9d, 1,4-Bis-[5′-(N′-methylguanidino)-pyridin-2′-yl]-phenylene]
- Acute toxicity in treated mice ([2]; 20 mg/kg ip): showed acute toxicity
- Cures (mice that survived 60 days and are parasite-free) ([2]; 20 mg/kg ip for 4 days): none gave cures

Structure (SMILES): CC(C)NC(=N)Nc1ccc(-c2ccc(-c3ccc(NC(=N)NC(C)C)cc3)cc2)cc1 [9e, 4,4″-Bis(N′-isopropyl)-guanidino-[1,1′;4′,1″]terphenyl]
- Reduction in DNA affinity [1]: approximately one third

- IC50 [3]: 5 nM
Structure (SMILES): N=C(N)c1ccc(-c2ccc(-c3ccc(C(=N)N)cc3)cc2)cc1 [V]
